These results are taken from patent US11608335B2, “Somatostatin modulators and uses thereof” (CRINETICS PHARMACEUTICALS, INC., priority 2018, dated 2023).

Like-named read-outs stand apart in the source and are kept apart here.

Data set [1] can be described thus: Liver microsomal stability assay. The data set is classed as in vitro ADME. The note with it: both sexes, human, pooled human liver microsomes; read-out: HLM Stability t½. As to the method:
Example B-2: Liver Microsomal Stability Assay Protocol
The in vitro stabilities of compounds of interest were determined for various species using pooled male and female human, pooled male Sprague-Dawley rat, pooled male Cynomolgus monkey, and pooled male Beagle dog liver microsomes at microsomal protein concentrations of 0.5 mg/mL. Incubations were carried out in a potassium phosphate buffer (50 mM). The NADPH-generating system was composed of NADP+ (1 mM), magnesium chloride (3 mM), EDTA (1 mM), glucose-6-phosphate (5 mM) and glucose-6-phosphate dehydrogenase (1 Unit/mL) for all experiments. Compounds of interest in DMSO/acetonitrile were added to achieve a final incubation concentration of 1 μM (final DMSO content was 0.1% v/v and final acetonitrile content was 0.9%). The final incubation volume was 400 μL. Incubations were conducted at 37° C. for 0, 5, 10, 20, 40 and 60 minutes in a shaking water bath and terminated by removing 50 μL of incubation mixture and adding to 100 μL of ice cold acetonitrile containing internal standard. Following precipitation by centrifugation at 3500 rpm and 4° C. for 30 minutes, compounds of interest and internal standard were analyzed in the resultant supernatant using a multiple reaction monitoring (MRM) LC-MS/MS method. MS conditions were optimized for each analyte.
(§1) Table E illustrates representative human liver microsomal stability and time dependent CYP2D6 inhibition (TDI) of exemplary compounds.
In general terms: Liver microsomes are vesicles of endoplasmic reticulum, rich in cytochrome P450 enzymes.

Data set [2] concerns the target T1, Cytochrome P450 (CYP) 2D6 enzyme (Homo sapiens, UniProt P10635).
T1 construct: using pooled male and female human liver microsomes; from tissue; host or cells: pooled male and female human liver microsomes
Briefly: Cytochrome P450 (CYP) 2D6 enzyme time dependent inhibition (TDI) assay. The data set is classed as in vitro ADME. The note with it: human liver microsomes. As to the method:
Example B-3: Cytochrome P450 (CYP) 2D6 Enzyme Time Dependent Inhibition (TDI) Assay Protocol
The NADPH-generating system mix was composed of potassium phosphate buffer pH 7.4 (50 mM), NADP+ (1 mM), magnesium chloride (3 mM), EDTA (1 mM), glucose-6-phosphate (5 mM), glucose-6-phosphate dehydrogenase (1 Unit/mL), human liver microsomes (0.1 mg/mL) and water. Compounds of interest in DMSO serial diluted to six different concentrations (final DMSO content of 0.1% v/v) were added to the NADPH-generating system. CYP 2D6 substrate Dextromethorphan was added at a final incubation concentration of 5 μM. The final incubation volume was 200 μL. Incubations were conducted at 37° C. for 10 minutes in a shaking water bath to evaluate the drug candidates as […] of CYP 2D6. In a separate test plate, drug candidates were pre-incubated at 37° C. for 30 minutes in a shaking water bath in NADPH-generating system mix in the absence of Dextromethorphan substrate to allow for the formation of metabolites. This plate was removed from the water bath and placed on ice for 5 minutes. Dextromethorphan substrate was then added and the plate was incubated at 37° C. for 10 minutes in a shaking water bath to determine if any metabolites formed during the 30 minute pre-incubation inhibit the CYP 2D6 enzyme. All incubations were terminated by removing 50 μL of incubation mixture and adding to 200 μL of ice cold acetonitrile containing internal standard. Following precipitation by centrifugation at 3500 rpm and 4° C. for 30 minutes, the resultant supernatant were analyzed by using a multiple reaction monitoring (MRM) LC-MS/MS method detecting for internal standard and the CYP 2D6 enzyme mediated Dextromethorphan O-demethylation metabolite Dextrorphan and IC50 values were determined.
as §1

The target in data set [3] is T2, human somatostatin receptor subtype 3 (Homo sapiens, UniProt P32745).
T2 construct: expressed in transfected cells
Briefly: cAMP assay for SST3R (inhibition of cAMP via human SST3 receptor). Format: cell-based. Conditions: from inhibition of cAMP via human SST5 receptor and human SST3 receptor. From the text:
cAMP Assay Protocol for SST3R:
For orientation: Cyclic AMP is a second messenger, typically raised through Gs and lowered through Gi signalling.

The target in data set [4] is human somatostatin receptor subtype 5 (Homo sapiens, UniProt P35346). Briefly: cAMP assay for SST5R (inhibition of cAMP via human SST5 receptor). The note with it: for Fold selectivity for SST5 vs SST2: SST5 over SST2, class symbols.
Data set [5] has as its target T3, human somatostatin receptor subtype 2 (Homo sapiens, UniProt P30874).
T3 construct: expressed in transfected cells
The data set can be described thus: cAMP assay for SST2R (inhibition of cAMP via human SST2 receptor). The data set is classed as cell-based. The note with it: Table B, read-out: SST2 potency. The text has this: cAMP Assay Protocol for SST2R:

For data set [6], the target named is T4, human somatostatin receptor subtype 4 (Homo sapiens, UniProt P31391).
T4 construct: expressed in transfected cells
The data set can be described thus: cAMP assay for hSST4R (inhibition of cAMP via human SST4 receptor). The data set is classed as cell-based. The note with it: from inhibition of cAMP via human SST5 receptor and human SST4 receptor. From the text:
cAMP Assay Protocol hSST4R:

The mark [7] stands for this setting: t = 0 min pre-incubation, read-out: CYP2D6 inhibition, IC50 (μM) t = 0 min.
The mark [8] stands for this setting: t = 30 min pre-incubation, read-out: CYP2D6 inhibition, IC50 (μM) t = 30 min.
[9] abbreviates: read-out: SST5 potency, inhibition of cAMP via human SST5 receptor, Table B.

T1 sequence (P10635 whole entry): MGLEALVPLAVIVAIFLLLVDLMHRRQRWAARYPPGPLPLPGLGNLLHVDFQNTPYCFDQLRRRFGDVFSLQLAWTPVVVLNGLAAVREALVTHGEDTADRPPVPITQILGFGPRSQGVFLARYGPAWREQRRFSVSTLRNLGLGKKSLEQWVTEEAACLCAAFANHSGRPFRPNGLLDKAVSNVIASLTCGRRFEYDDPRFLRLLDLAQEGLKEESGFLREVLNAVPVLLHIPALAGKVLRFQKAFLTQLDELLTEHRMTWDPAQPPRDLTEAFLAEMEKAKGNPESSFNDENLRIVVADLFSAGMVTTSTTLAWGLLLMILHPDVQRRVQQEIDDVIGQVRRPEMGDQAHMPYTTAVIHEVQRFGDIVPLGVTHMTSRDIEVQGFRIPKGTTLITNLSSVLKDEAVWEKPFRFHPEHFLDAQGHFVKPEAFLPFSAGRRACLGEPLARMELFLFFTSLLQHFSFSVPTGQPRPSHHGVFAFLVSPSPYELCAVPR
T2 sequence (P32745 whole entry): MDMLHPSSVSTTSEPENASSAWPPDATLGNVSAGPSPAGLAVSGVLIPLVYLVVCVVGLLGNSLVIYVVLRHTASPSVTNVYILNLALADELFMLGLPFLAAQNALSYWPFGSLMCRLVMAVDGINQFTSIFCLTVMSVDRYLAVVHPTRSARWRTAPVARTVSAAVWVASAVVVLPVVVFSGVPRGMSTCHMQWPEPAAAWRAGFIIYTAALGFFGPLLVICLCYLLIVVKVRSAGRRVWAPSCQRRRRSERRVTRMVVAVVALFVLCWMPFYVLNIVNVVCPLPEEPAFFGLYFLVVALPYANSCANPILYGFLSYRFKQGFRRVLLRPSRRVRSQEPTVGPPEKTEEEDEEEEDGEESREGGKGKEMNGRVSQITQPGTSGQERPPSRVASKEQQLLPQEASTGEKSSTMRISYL
Sequence of human somatostatin receptor subtype 5 (P35346 whole entry): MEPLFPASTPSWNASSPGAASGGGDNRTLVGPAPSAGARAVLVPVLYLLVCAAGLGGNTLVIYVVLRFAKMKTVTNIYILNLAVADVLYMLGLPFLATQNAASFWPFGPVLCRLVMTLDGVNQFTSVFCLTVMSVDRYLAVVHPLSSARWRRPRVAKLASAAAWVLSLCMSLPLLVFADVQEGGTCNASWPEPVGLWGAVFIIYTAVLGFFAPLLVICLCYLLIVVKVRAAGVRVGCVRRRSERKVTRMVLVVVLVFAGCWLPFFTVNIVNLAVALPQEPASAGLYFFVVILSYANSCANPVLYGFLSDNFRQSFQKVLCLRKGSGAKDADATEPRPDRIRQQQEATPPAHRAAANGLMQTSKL
T3 sequence (P30874 whole entry): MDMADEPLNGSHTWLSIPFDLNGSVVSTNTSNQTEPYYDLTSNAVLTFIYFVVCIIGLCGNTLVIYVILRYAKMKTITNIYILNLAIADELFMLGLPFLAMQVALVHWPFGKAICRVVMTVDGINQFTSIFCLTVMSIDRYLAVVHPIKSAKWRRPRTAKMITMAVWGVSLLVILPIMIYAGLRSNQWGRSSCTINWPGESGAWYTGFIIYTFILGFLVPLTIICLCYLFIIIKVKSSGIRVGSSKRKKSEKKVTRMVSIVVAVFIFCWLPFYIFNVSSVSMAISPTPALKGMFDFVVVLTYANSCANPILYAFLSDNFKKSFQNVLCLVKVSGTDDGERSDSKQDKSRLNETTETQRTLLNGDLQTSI
T4 sequence (P31391 whole entry): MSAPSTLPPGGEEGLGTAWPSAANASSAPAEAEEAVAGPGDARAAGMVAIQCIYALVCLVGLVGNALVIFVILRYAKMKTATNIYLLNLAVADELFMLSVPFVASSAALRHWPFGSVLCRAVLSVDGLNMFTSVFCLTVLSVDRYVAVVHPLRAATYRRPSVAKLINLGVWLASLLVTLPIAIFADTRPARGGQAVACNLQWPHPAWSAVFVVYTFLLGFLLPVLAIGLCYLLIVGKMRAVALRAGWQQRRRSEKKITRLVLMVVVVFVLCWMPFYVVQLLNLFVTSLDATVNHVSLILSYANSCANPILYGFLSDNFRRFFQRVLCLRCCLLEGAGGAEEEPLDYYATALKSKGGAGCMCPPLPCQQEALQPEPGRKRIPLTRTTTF

For orientation: IC50 means the concentration that gives 50% inhibition. For `Cc1cccc2[nH]c(-c3cncc(-c4cc(F)cc(C#N)c4)c3N3CC[C@H](N)C3)nc12` [Compound 2-34, 3-{4-[(3S)-3-aminopyrrolidin-1-yl]-5-(4-methyl-1H-1,3-benzodiazol-2-yl)pyridin-3-yl}-5-fluorobenzonitrile], in data set [1], the half-life at 1 μM was greater than 11.6 h. In addition, the IC50 in data set [2] (setting [7]) and in data set [2] (setting [8]) was greater than 10 µM in each case.
Turning to `Cc1ccnc2[nH]c(-c3cncc(-c4ccc(F)c(C#N)c4)c3N3CC[C@](C)(N)C3)nc12` [Compound 2-154, 5-{4-[(3S)-3-amino-3-methylpyrrolidin-1-yl]-5-{7-methyl-1H-imidazo[4,5-b]pyridin-2-yl}pyridin-3-yl}-2-fluorobenzonitrile], the “Fold selectivity for SST5 vs SST3” value in data set [3] was 118 fold. Further, the EC50 was less than 10 nM in data set [4], less than 10 nM in data set [4] (setting [9]) and 10 to 100 nM in data set [5]. For the same compound, the “Fold selectivity for SST5 vs SST2” value in data set [4] is given as “++ (++=100 to 499)”. The half-life at 1 μM in data set [1] is greater than 11.6 h. For the same compound, the IC50 in data set [2] (setting [7]) and in data set [2] (setting [8]) was greater than 10 µM in each case.
On to `C[C@]1(N)CCN(c2c(-c3ccc(F)c(C#N)c3)cncc2-c2nc3cccc(C#N)c3[nH]2)C1` [Compound 2-171, 2-{4-[(3S)-3-amino-3-methylpyrrolidin-1-yl]-5-(3-cyano-4-fluorophenyl)pyridin-3-yl}-1H-1,3-benzodiazole-7-carbonitrile], for which the “Fold selectivity for SST5 vs SST3” value in data set [3] was 183 fold. In addition, the EC50 was less than 10 nM in data set [4], less than 10 nM in data set [4] (setting [9]) and 100 to 1000 nM in data set [5]. Also, the “Fold selectivity for SST5 vs SST2” value in data set [4] is on record as “+++ (+++=≥500)”. The “Fold selectivity for SST5 vs SST4” value in data set [6] is 18 fold.
Regarding `Cc1cc(-c2cncc(-c3nc4c(F)cccc4[nH]3)c2N2CC[C@](C)(N)C2)ccn1` [Compound 2-178, (3S)-1-[5-(4-fluoro-1H-1,3-benzodiazol-2-yl)-2′-methyl-[3,4′-bipyridin]-4-yl]-3-methylpyrrolidin-3-amine], the “Fold selectivity for SST5 vs SST3” value in data set [3] is on record as 147 fold. For the same compound, the EC50 in data set [4] was less than 10 nM; in data set [4] (setting [9]), less than 10 nM; in data set [5] it was greater than 1000 nM. Moreover, in data set [4], the “Fold selectivity for SST5 vs SST2” value was “++ (++=100 to 499)”. Moreover, in data set [1], the half-life at 1 μM came out at 3.85 h. Also, the IC50 in data set [2] (setting [7]) was greater than 10 µM; in data set [2] (setting [8]) it was 9.7 µM.
Regarding `C[C@]1(N)CCN(c2c(-c3ccnc(C(F)(F)F)c3)cncc2-c2nc3c(F)cccc3[nH]2)C1` [Compound 2-186, (3S)-1-[5-(4-fluoro-1H-1,3-benzodiazol-2-yl)-2′-(trifluoromethyl)-[3,4′-bipyridin]-4-yl]-3-methylpyrrolidin-3-amine], in data set [3], the “Fold selectivity for SST5 vs SST3” value is 158 fold. In addition, the EC50 in data set [4] is less than 10 nM; in data set [4] (setting [9]), less than 10 nM; in data set [5], 100 to 1000 nM. Also, the “Fold selectivity for SST5 vs SST2” value in data set [4] is recorded as “+++ (+++=≥500)”. In data set [1], the half-life at 1 μM was determined as 5.78 h. Also, the 50% inhibitory concentration (IC50) was 5.4 µM in data set [2] (setting [7]) and 1.1 µM in data set [2] (setting [8]).
For the compound `COc1cc(-c2cncc(-c3nc4c(F)cccc4[nH]3)c2N2CC[C@](C)(N)C2)ccn1` [Compound 2-187, (3S)-1-[5-(4-fluoro-1H-1,3-benzodiazol-2-yl)-2′-methoxy-[3,4′-bipyridin]-4-yl]-3-methylpyrrolidin-3-amine], the “Fold selectivity for SST5 vs SST3” value in data set [3] was 93 fold. Also, the EC50 in data set [4] is less than 10 nM; in data set [4] (setting [9]) it was less than 10 nM; in data set [5], 100 to 1000 nM. For the same compound, the “Fold selectivity for SST5 vs SST2” value in data set [4] was “++ (++=100 to 499)”. For the same compound, the half-life at 1 μM in data set [1] was 0.683 h. The figures for the half-inhibitory concentration (IC50) in data set [2] (setting [7]) and in data set [2] (setting [8]) were greater than 10 µM and 2.9 µM, respectively.
As to `Cc1cc(-c2cncc(-c3nc4nccc(C)c4[nH]3)c2N2CC[C@](C)(N)C2)ccc1F` [Compound 2-188, (3S)-1-[3-(4-fluoro-3-methylphenyl)-5-{7-methyl-1H-imidazo[4,5-b]pyridin-2-yl}pyridin-4-yl]-3-methylpyrrolidin-3-amine], in data set [3], the “Fold selectivity for SST5 vs SST3” value stood at 16 fold. Besides, the EC50 was less than 10 nM in data set [4], less than 10 nM in data set [4] (setting [9]) and 100 to 1000 nM in data set [5]. Also, the “Fold selectivity for SST5 vs SST2” value in data set [4] is “++ (++=100 to 499)”. Also, the half-life at 1 μM in data set [1] is 0.55 h. Also, the values for the half-maximal inhibitory concentration (IC50) in data set [2] (setting [7]) and in data set [2] (setting [8]) were greater than 10 µM and 8.7 µM, respectively.
On to `COc1cc(-c2cncc(-c3nc4nccc(C)c4[nH]3)c2N2CC[C@](C)(N)C2)ccc1F` [Compound 2-189, (3S)-1-[3-(4-fluoro-3-methoxyphenyl)-5-{7-methyl-1H-imidazo[4,5-b]pyridin-2-yl}pyridin-4-yl]-3-methylpyrrolidin-3-amine], for which the “Fold selectivity for SST5 vs SST3” value in data set [3] is listed as 27 fold. For the same compound, the EC50 in data set [4] is less than 10 nM; in data set [4] (setting [9]), less than 10 nM; in data set [5], 10 to 100 nM. Also, the “Fold selectivity for SST5 vs SST2” value in data set [4] is “++ (++=100 to 499)”. In addition, the half-life at 1 μM in data set [1] was greater than 11.6 h. In addition, the 50% inhibitory concentration (IC50) in data set [2] (setting [7]) and in data set [2] (setting [8]) was greater than 10 µM in each case.
As to `Cc1ccnc2nc(-c3cncc(-c4ccc(F)c(F)c4)c3N3CC[C@](C)(N)C3)[nH]c12` [Compound 2-190, (3S)-1-[3-(3,4-difluorophenyl)-5-{7-methyl-1H-imidazo[4,5-b]pyridin-2-yl}pyridin-4-yl]-3-methylpyrrolidin-3-amine], the “Fold selectivity for SST5 vs SST3” value in data set [3] is recorded as 16 fold. Moreover, the results for the EC50 in data set [4], in data set [4] (setting [9]) and in data set [5] were less than 10 nM, less than 10 nM and 10 to 100 nM, respectively. Moreover, in data set [4], the “Fold selectivity for SST5 vs SST2” value is on record as “+ (+=10 to 99)”. Besides, the half-life at 1 μM in data set [1] was 2.32 h. The IC50 in data set [2] (setting [7]) and in data set [2] (setting [8]) was greater than 10 µM throughout.
`Cc1ccnc2nc(-c3cncc(-c4ccc(F)c(C(F)(F)F)c4)c3N3CC[C@](C)(N)C3)[nH]c12` [Compound 2-191, (3S)-1-{3-[4-fluoro-3-(trifluoromethyl)phenyl]-5-{7-methyl-1H-imidazo[4,5-b]pyridin-2-yl}pyridin-4-yl}-3-methylpyrrolidin-3-amine]: the “Fold selectivity for SST5 vs SST3” value in data set [3] came out at 24 fold. The EC50 in data set [4] is less than 10 nM; in data set [4] (setting [9]) it was less than 10 nM; in data set [5], 100 to 1000 nM. The “Fold selectivity for SST5 vs SST2” value in data set [4] was “+++ (+++=≥500)”. Moreover, the half-life at 1 μM in data set [1] came out at 2.32 h. The half-maximal inhibitory concentration (IC50) in data set [2] (setting [7]) came to 5.7 µM; in data set [2] (setting [8]), 5.1 µM.
In the case of `C[C@]1(N)CCN(c2c(-c3cccc(C#N)c3)cncc2-c2nc3c(F)cccc3[nH]2)C1` [Compound 2-200, 3-{4-[(3S)-3-amino-3-methylpyrrolidin-1-yl]-5-(4-fluoro-1H-1,3-benzodiazol-2-yl)pyridin-3-yl}benzonitrile], the “Fold selectivity for SST5 vs SST3” value in data set [3] was determined as 159 fold. Besides, the EC50 is less than 10 nM in data set [4], less than 10 nM in data set [4] (setting [9]) and 100 to 1000 nM in data set [5]. Further, the “Fold selectivity for SST5 vs SST2” value in data set [4] is recorded as “+++ (+++=≥500)”. In addition, in data set [6], the “Fold selectivity for SST5 vs SST4” value amounted to 136 fold.
